Columns and labels:
[1] = tested on: human keratinocytes; details: NPL 4; cited from earlier work
[2] = tested on: scratch model; details: NPL 4; cited from earlier work
[3] = tested on: SD rat; assay: rat oral ulcer model induced by cauterization; assay type: in vivo; details: for oral ulcer area on Day 8: 1 mass % ointment 0.05 mL twice a day for 5 days from Day 3, Mean±S.E., n=6, vehicle 20.4±2.3 mm^2; for reduction in the oral ulcer area as compared with the vehicle administration group: 1 mass % ointment twice a day for 5 days, Day 8, n=6, t-test (compound A p<0.05; crisaborole n.s.)
Excerpt: Using a male rat (SD rat), an oral ulcer was initiated by cauterization as follows. That is, conventional rats were anesthetized by isoflurane inhalation anesthesia and then placed on their back, and while the upper jaw and the lower jaw of each rat were opened using a rib retractor to take a view, a monopolar having a tip diameter of […] was applied to the central portion of the left oral mucosa, and the portion was cauterized in a circular shape (diameter: 3 to 4 mm) for about 10 to 20 seconds at a set output of 20 to induce an oral ulcer. After the cauterization, the rat was returned to a breeding cage and naturally awakened.
The day of oral ulcer induction was defined as the start day (Day 0). Two days after the oral ulcer induction (Day 2), the rats were grouped using a stratified random sampling method based on the body weight. From 3 days after the initiation of an oral ulcer by cauterization (Day 3), an ointment preparation containing 1 mass % of a test substance or an ointment base alone was orally administered at a dose of 0.05 mL twice a day (around 8:00 and 16:00) for 5 days. (As the compound A 1%, Moizerto (registered trademark) ointment 1% was used. The crisaborole 1% was prepared using a formula in which Moizerto (registered trademark) ointment 1% as the compound A was replaced by crisaborole.) Specifically, a rat anesthetized by isoflurane inhalation was laid down in a left side position, and the ointment preparation was administered to the left cheek where an ulcer was prepared in a state where the oral cavity was opened using tweezers or a rib retractor.

[4] = tested on: normal human corneal epithelial cell (HCEC-2); assay: scratch assay of corneal epithelial cells with compound solution or conditioned medium from keratocytes; assay type: cell-based; details: HCEC-2 scratch wound, conditioned medium from normal human keratocytes cultured 24 hours with compound, 20 hours culture
Experimental: The influence of the compound A on corneal epithelial cells via a keratocyte was evaluated. As the corneal epithelial cell and the keratocyte used in the evaluation system, a normal human corneal epithelial cell (HCEC-2, Kurabo Industries Ltd.) and a normal human keratocyte (EK, Cosmo Bio Co., Ltd.) were used.
Keratocytes (2×10^5 cells/mL) suspended in a fibroblast culture medium (Fibroblast Medium, Cosmo Bio Co., Ltd.) were seeded at 1 mL/well in a 12 well plate coated with poly-L-lysine, and cultured overnight. After removal of the culture medium and washing with normal human corneal epithelial cell basal medium (OcuLife BM, Kurabo Industries Ltd.), the compound solution was added. As the compound solution, a solution was used that was prepared by mixing dimethyl sulfoxide or the compound A dissolved in dimethyl sulfoxide with OcuLife BM (the final concentration of dimethyl sulfoxide was 0.1% [v/v]). After completion of the culture for 24 hours, the conditioned medium was collected.
Corneal epithelial cells (6×10^5 cells/mL) suspended in OcuLife BM were seeded at 100 μL/well in ImageLock 96-well Plate (Sartorius AG) coated with type I collagen, and cultured for 4 hours. Each well was scratched using a Wound Maker (trademark) tool (Sartorius AG) to prepare an initial scratch wound area in which no cells were present. […]

[5] = tested on: normal human epidermal keratinocyte (NHEK); assay: scratch assay of epidermic cells with compound solution or conditioned medium from skin fibroblasts; assay type: cell-based; details: conditioned medium from normal human dermal fibroblasts cultured 24 hours with compound, 18 hours culture
Experimental: The influence of the compound A on epidermic cells via a skin fibroblast was evaluated. As the epidermic cell and the skin fibroblast used in the evaluation system, a normal human epidermal keratinocyte (NHEK, Kurabo Industries Ltd.) and a normal human dermal fibroblast (NEDF, Kurabo Industries Ltd.) were used. As a reference compound, dexamethasone, which is an anti-inflammatory drug, was used.
Skin fibroblasts (1×10^5 cells/mL) suspended in Dulbecco's Modified Eagle Medium (DMEM) containing 10% (v/v) fetal bovine serum (FBS) were seeded at 1 mL/well in a 12 well plate coated with type I collagen, and cultured for 48 hours. After removal of the culture medium and washing with phosphate buffered saline (PBS), the compound solution was added. As the compound solution, a solution was used that was prepared by mixing dimethyl sulfoxide or a compound (the compound A or dexamethasone) dissolved in dimethyl sulfoxide with a normal human epidermal keratinocyte basal medium (HuMedia-KB2, Kurabo Industries Ltd.) (the final concentration of dimethyl sulfoxide was 0.1% [v/v]). After completion of the culture for 24 hours, the conditioned medium was collected.
Epidermic cells (6×10^5 cells/mL) suspended in HuMedia-KB2 were seeded at 100 μL/well in ImageLock 96-well Plate (Sartorius AG) coated with type I collagen, and cultured for 4 hours. […]

[6] = tested on: db/db mice; assay: wound model using diabetic (db/db) mouse, circular defect wounds of the back skin; assay type: in vivo; details: for healing promoting action as compared with the vehicle administration group (area of defect portions): ointment applied to defect wounds once daily for 10 days, compound A groups 1%, 2%, p<0.01 for compound A, N=6; for course of the area of the defect portions (start of healing): ointment once daily for 10 days, compound A 1%, 2% groups, crisaborole increase on second day in the 2% group, vehicle decreased from the fourth day
Experimental: The compound A or crisaborole was administered to db/db mice, which are spontaneously diabetic models, for 10 days, and the influence on wound healing was examined by analyzing the wound area.
Before start of the test, the db/db mice were grouped using the HbA1c blood concentration as an index, and shaved from the back to the abdomen. On the test start day, the back skin was punched using a biopsy punch (φ6 mm) under isoflurane anesthesia, and thus two circular defect wounds were prepared. The defect portions were photographed, and then an ointment preparation (vehicle [30% medium chain fatty acid triglyceride-containing white petrolatum], compound A or crisaborole) as a test substance was applied to the defect portions and covered with a dressing (Tegaderm, 3M). After the day following the preparation of the defect wounds, removal of the dressing, photographing of the defect portions (once every two days), administration of the test substance, and covering with a dressing were repeated (once daily for 10 days).

[7] = tested on: SD rat; assay: rat corneal epithelial defect (corneal wound) model; assay type: in vivo; details: for wound area healing rate on Day 2: SD rat corneal epithelial defect, 1% ointment to the eye four times a day, n=5; for healing of the corneal defect wound as compared with the vehicle administration group: n=5, t-test (compound A p<0.05; crisaborole n.s.)
Excerpt: Using a male rat (SD rat), a corneal wound was induced as follows. On the day before the start of the test, rats were grouped using a stratified random sampling method based on the body weight. Under isoflurane anesthesia, each conventional rat was anesthetized with a Benoxil ophthalmic solution to the surface of the eye, and then a nonwoven fabric (3 mm in diameter) with 1-heptanol immersed was placed on the central portion of the cornea and allowed to stand for 30 seconds. Thereafter, the surface of the eye was washed with physiological saline, and the corneal epithelium was scratched with a cotton swab and thus carefully peeled to prepare a corneal defect. A 0.5% methylene blue solution was instilled into the eye, and the corneal epithelial defect portion was washed with physiological saline and then photographed, and then an ointment preparation (base alone, 1% compound A-containing ointment, or 1% crisaborole-containing ointment) as a test substance was administered to the eye four times a day (around 8:00, 11:00, 14:00, and 17:00) for three days. After the day following the preparation of the defect wound, photographing of the defect portion and administration of the test substance were repeated.

[8] = SD rat, 1% ointment four times a day

Structure (SMILES)	growth of human keratinocytes [1]	re-epithelialization in a scratch model after treatment [2]	oral ulcer area on Day 8 [3] [mm^2]	reduction in the oral ulcer area as compared with the vehicle administration group [3]	migration of the corneal epithelial cells (wound confluence) [4]	migration of the epidermic cells (wound confluence) [5]	healing promoting action as compared with the vehicle administration group (area of defect portions) [6]	course of the area of the defect portions (start of healing) [6]	wound area healing rate on Day 2 [7] [%]	healing of the corneal defect wound as compared with the vehicle administration group [7, 8]	time after preparation of the defect wound from which the defect portion area rapidly decreased ([7]; SD rat, 1% ointment four times a day, vehicle apparent healing started on Day 2) [h]
CS(=O)(=O)Nc1ccc(C(=O)O[C@@H](Cc2c(Cl)c[n+]([O-])cc2Cl)c2ccc(OC(F)F)c(OCC3CC3)c2)cc1OCC1CC1 [CHF6001]	suppresses growth of human keratinocytes	re-epithelialization is decreased									
CCOc1ccccc1C(=O)NCc1coc(-c2ccc(OC(F)F)c(OC(C)C)c2)n1 [compound A, N-({2-[4-(difluoromethoxy)-3-(propan-2-yloxy)phenyl]-1,3-oxazol-4-yl}methyl)-2-ethoxybenzamide]			13.1±1.3	significant reduction in the oral ulcer area was observed	promoted migration of the corneal epithelial cells via the keratocytes	promoted migration of the epidermic cells via the skin fibroblasts	a healing promoting action was confirmed	rapidly decreased from the second day	100	a significant healing promoting action was confirmed	8
N#Cc1ccc(Oc2ccc3c(c2)COB3O)cc1 [crisaborole, reference compound]			18.3±2.7	significant reduction in the oral ulcer area was not observed			a significant healing promoting action was not observed	increased on the second day (in the 2% group) and then gradually decreased from the fourth day	81.6	healing was not completed	
